The test system of experiment [1] is MIA PaCa-2 (human pancreatic carcinoma) cells. The experiment in a line: Cell Viability Assay (CellTiter-Glo), MIA PaCa-2. It counts as cell-based. As to the method:
Serially-diluted compound or DMSO was added to the cells, and plates were incubated at 37° C., 5% CO2 for 72 h. Cell viability was measured using a CellTiter-Glo® Luminescent Cell Viability Assay kit (Promega) according to the manufacturer's protocol. The luminescence signal of treated samples was normalized to DMSO control, and data were analyzed using a 4-parameter logistic model to calculate IC50 values.

Experiment [2] addresses KRAS G12C (Homo sapiens (Human), UniProt P01116, C118A/G12C). The experiment in a line: 2 h coupled exchange assay. It counts as biochemical. The note with it: Avg 2 h Coupled exchange IC50, 2 h compound pre-incubation. On the procedure: The term “2 h coupled exchange assay” or “20 h coupled exchange assay” as used herein refers to the assay described in the Section entitled “BIOLOGICAL EVALUATION.”

Experiment [3] has as its system A549 (human lung carcinoma) cells. Put plainly: Cell Viability Assay (CellTiter-Glo), A549. Type of experiment: cell-based. In short, it runs like this: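 Cells grown in RPMI 1640 with 10% FBS were seeded at 1.67E+04 cells/mL and left overnight at 37° C., 5% CO2. They were then exposed to serially diluted compound for 72 h, after which CellTiter-Glo luminescence was read, normalized to DMSO, and fitted to a 4-parameter logistic model for IC50.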

The mark [4] stands for this setting: SOS-mediated nucleotide exchange.

Molecules are shown by their SMILES.

Chain of KRAS G12C (P01116 other isoform, or with tags, fused parts or gaps G12C/C118A): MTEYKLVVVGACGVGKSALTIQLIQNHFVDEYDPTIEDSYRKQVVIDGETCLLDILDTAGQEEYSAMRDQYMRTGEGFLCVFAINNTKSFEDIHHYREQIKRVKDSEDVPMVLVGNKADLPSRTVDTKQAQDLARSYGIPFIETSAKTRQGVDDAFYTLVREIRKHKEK

As for `C=CC(=O)N1CC2(CCN(c3nc4c(c(-c5c(C)ccc6[nH]ncc56)c3C#N)C3C(C4)C3(C)C)C2)C1` (stereo not drawn) [Example 13-84], the IC50 is 479 nM in experiment [1] (Homo sapiens, MIA PaCa-2, 72 h); 108 nM in experiment [2] (setting [4]); > 5000 nM in experiment [3] (Homo sapiens, A549, 72 h).
The matching figures for `C=CC(=O)N1CC2(CCN(c3nc4c(c(-c5cc(O)cc6ccccc56)c3C#N)C[C@H]3C[C@@H]4C3(C)C)C2)C1` [Example 13-108, (1R,9R)-6-(3-hydroxy-1-naphthalenyl)-10,10-dimethyl-4-(2-(2-propenoyl)-2,6-diazaspiro[3.4]octan-6-yl)-3-azatricyclo[7.1.1.0^2,7]undeca-2,4,6-triene-5-carbonitrile]: 63 nM, 24 nM and 2910 nM.
The matching figures for `C=CC(=O)N1CC2(CCN(c3nc4c(c(-c5c(C(F)(F)F)ccc6[nH]ncc56)c3C#N)C[C@H]3C[C@@H]4C3(C)C)C2)C1` [Example 2-31, (1R,9R)-10,10-dimethyl-4-(2-(2-propenoyl)-2,6-diazaspiro[3.4]octan-6-yl)-6-(5-(trifluoromethyl)-1H-indazol-4-yl)-3-azatricyclo[7.1.1.0^2,7]undeca-2,4,6-triene-5-carbonitrile]: 54 nM, 53 nM and 2780 nM.
The matching figures for `C=CC(=O)N1CC2(CCN(c3nc4c(c(-c5c(C)ccc6[nH]ncc56)c3C(F)F)COC(C)(C)C4)C2)C1` [Example 13-45, 1-(6-(3-(difluoromethyl)-7,7-dimethyl-4-(5-methyl-1H-indazol-4-yl)-7,8-dihydro-5H-pyrano[4,3-b]pyridin-2-yl)-2,6-diazaspiro[3.4]octan-2-yl)-2-propen-1-one]: 421 nM, 148 nM and > 5000 nM.
`C=CC(=O)N1CC2(CCN(c3nc4c(c(-c5ccccc5F)c3C#N)CCN(c3scnc3C)[C@@H]4C)C2)C1` [Example 21-5, (8R)-4-(2-fluorophenyl)-8-methyl-7-(4-methyl-1,3-thiazol-5-yl)-2-(2-(2-propenoyl)-2,6-diazaspiro[3.4]octan-6-yl)-5,6,7,8-tetrahydro-1,7-naphthyridine-3-carbonitrile]: the IC50 in experiment [1] (Homo sapiens, MIA PaCa-2, 72 h) was determined as 454 nM; in experiment [2], 57 nM; in experiment [3] (Homo sapiens, A549, 72 h) it was 3980 nM.
On the same counts, the results for `C=CC(=O)N1CC2(CCN(c3nc4c(c(-c5c(C)ccc6cnn(C)c56)c3C)COC(C)(C)C4)C2)C1` (single isomer, unassigned) [Example 14-99, (P)-1-(6-(4-(1,6-dimethyl-1H-indazol-7-yl)-3,7,7-trimethyl-7,8-dihydro-5H-pyrano[4,3-b]pyridin-2-yl)-2,6-diazaspiro[3.4]octan-2-yl)-2-propen-1-one] are 80 nM, 71 nM and > 5000 nM.
For `C=CC(=O)N1CC2(CCN(c3nc4c(c(-c5c(C)ccc(OC)c5N)c3C#N)COC(C)(C)C4)C2)C1` [Example 37-1, 4-(2-amino-3-methoxy-6-methylphenyl)-7,7-dimethyl-2-(2-(2-propenoyl)-2,6-diazaspiro[3.4]octan-6-yl)-7,8-dihydro-5H-pyrano[4,3-b]pyridine-3-carbonitrile], the IC50 was 96 nM in experiment [1] (Homo sapiens, MIA PaCa-2, 72 h); 214 nM in experiment [2]; > 25000 nM in experiment [3] (Homo sapiens, A549, 72 h).
In the case of `C=CC(=O)N1CC2(CCN(c3cc4c(c(-c5cc(O)cc6ccccc56)c3C#N)CCC(C)(C)C4)C2)C1` [Example 2-98, 3′-hydroxy-6,6-dimethyl-3-(2-(2-propenoyl)-2,6-diazaspiro[3,4]octan-6-yl)-5,6,7,8-tetrahydro[1,1′-binaphthalene]-2-carbonitrile], the IC50 in experiment [1] (Homo sapiens, MIA PaCa-2, 72 h) is 110 nM; in experiment [2] (setting [4]), 55 nM; in experiment [3] (Homo sapiens, A549, 72 h), > 5000 nM.
Take `Cc1ncsc1N1CCc2c(nc(N3CCC4(CN(C(=O)/C=C/CN(C)C)C4)C3)c(C#N)c2-c2ccccc2F)C1` [Example 21-31, 2-(2-((2E)-4-(dimethylamino)-2-butenoyl)-2,6-diazaspiro[3.4]octan-6-yl)-4-(2-fluorophenyl)-7-(4-methyl-1,3-thiazol-5-yl)-5,6,7,8-tetrahydro-1,7-naphthyridine-3-carbonitrile]: the IC50 in experiment [1] (Homo sapiens, MIA PaCa-2, 72 h) is 738 nM; in experiment [2], 641 nM; in experiment [3] (Homo sapiens, A549, 72 h) it was > 5000 nM.
In the case of `C=CC(=O)N1CC2(CCN(c3nc4c(c(-c5c(C)ccc6[nH]ncc56)c3C#N)CCC(C)C4)C2)C1` (stereo not drawn) [Example 2-1, 2-(2-acryloyl-2,6-diazaspiro[3.4]octan-6-yl)-7-methyl-4-(5-methyl-1H-indazol-4-yl)-5,6,7,8-tetrahydroquinoline-3-carbonitrile], the IC50 in experiment [1] (Homo sapiens, MIA PaCa-2, 72 h) amounted to 430 nM; in experiment [2] (setting [4]), 42 nM; in experiment [3] (Homo sapiens, A549, 72 h), 3100 nM.
Consider `C=CC(=O)N1CC2(CCN(c3nc4c(c(-c5cc(O)ccc5Cl)n3)CCC(c3scnc3C)C4)C2)C1` [Example 22-4, 1-(6-((7R)-4-(2-chloro-5-hydroxyphenyl)-7-(4-methyl-1,3-thiazol-5-yl)-5,6,7,8-tetrahydro-2-quinazolinyl)-2,6-diazaspiro[3.4]octan-2-yl)-2-propen-1-one| 1-(6-((7S)-4-(2-chloro-5-hydroxyphenyl)-7-(4-methyl-1,3-thiazol-5-yl)-5,6,7,8-tetrahydro-2-quinazolinyl)-2,6-diazaspiro[3.4]octan-2-yl)-2-propen-1-one], for which the IC50 was > 5000 nM in experiment [1] (Homo sapiens, MIA PaCa-2, 72 h); 222 nM in experiment [2]; > 5000 nM in experiment [3] (Homo sapiens, A549, 72 h).
Consider `C=CC(=O)N1CC2(CCN(c3nc4cc(OC)ccc4c(-c4c(C)ccc5[nH]ncc45)c3C)C2)C1` [Example 2-48, 1-(6-(7-methoxy-3-methyl-4-(5-methyl-1H-indazol-4-yl)-2-quinolinyl)-2,6-diazaspiro[3,4]octan-2-yl)-2-propen-1-one], for which the 50% inhibitory concentration (IC50) in experiment [1] (Homo sapiens, MIA PaCa-2, 72 h) is 885 nM; in experiment [2] (setting [4]) it was 109 nM; in experiment [3] (Homo sapiens, A549, 72 h), > 5000 nM.
For `C=CC(=O)N1CC2(CCN(c3nc4c(c(-c5c(C)ccc6[nH]ncc56)c3C#N)CCC(C)(C)C4)C2)C1` (single isomer, unassigned) [Example 1-10, (M)-7,7-dimethyl-4-(5-methyl-1H-indazol-4-yl)-2-(2-(2-propenoyl)-2,6-diazaspiro[3.4]octan-6-yl)-5,6,7,8-tetrahydro-3-quinolinecarbonitrile], the IC50 worked out at 2500 nM in experiment [1] (72 h), 6700 nM in experiment [2] (setting [4]) and 2910 nM in experiment [3] (72 h).
On to `C=CC(=O)N1CC2(CCN(c3nc4c(c(-c5ncccc5F)c3C#N)CC[C@@H](c3scnc3C)C4)C2)C1` (racemic) [Example 23-57, (7R)-4-(3-fluoro-2-pyridinyl)-7-(4-methyl-1,3-thiazol-5-yl)-2-(2-(2-propenoyl)-2,6-diazaspiro[3.4]octan-6-yl)-5,6,7,8-tetrahydro-3-quinolinecarbonitrile (7S)-4-(3-fluoro-2-pyridinyl)-7-(4-methyl-1,3-thiazol-5-yl)-2-(2-(2-propenoyl)-2,6-diazaspiro[3.4]octan-6-yl)-5,6,7,8-tetrahydro-3-quinolinecarbonitrile], for which the half-maximal inhibitory concentration (IC50) is 299 nM in experiment [1] (Homo sapiens, MIA PaCa-2, 72 h); 85 nM in experiment [2]; > 5000 nM in experiment [3] (Homo sapiens, A549, 72 h).
The matching figures for `C=CC(=O)N1CC2(CCN(c3nc4c(c(-c5ccc(F)c6sc(N)nc56)c3C#N)COC(C)(C)C4)C2)C1` (single isomer, unassigned) [Example 14-57, (P)-4-(2-amino-7-fluoro-1,3-benzothiazol-4-yl)-7,7-dimethyl-2-(2-(2-propenoyl)-2,6-diazaspiro[3.4]octan-6-yl)-7,8-dihydro-5H-pyrano[4,3-b]pyridine-3-carbonitrile]: 71 nM, 40 nM and > 5000 nM.
Turning to `C=CC(=O)N1CC2(CCN(c3cc4c(c(-c5c(C(F)(F)F)ccc6[nH]ncc56)c3Cl)OCCC4)C2)C1` [Example 2-103, 1-(6-(7-chloro-8-(5-(trifluoromethyl)-1H-indazol-4-yl)-3,4-dihydro-2H-chromen-6-yl)-2,6-diazaspiro[3.4]octan-2-yl)-2-propen-1-one], the IC50 was 118 nM in experiment [1] (Homo sapiens, MIA PaCa-2, 72 h); 294 nM in experiment [2] (setting [4]); > 5000 nM in experiment [3] (Homo sapiens, A549, 72 h).
On the same counts, the results for `C=CC(=O)N1CC2(CCN(c3nc4c(c(-c5cc(O)cc6ccccc56)c3C#N)CC(C)(C)C4)C2)C1` [Example 13-65, 4-(3-hydroxy-1-naphthalenyl)-6,6-dimethyl-2-(2-(2-propenoyl)-2,6-diazaspiro[3.4]octan-6-yl)-6,7-dihydro-5H-cyclopenta[b]pyridine-3-carbonitirle] are 472 nM, 74 nM and > 5000 nM.
As to `C=CC(=O)N1CC2(CCN(c3nc4c(c(-c5cc(O)cc6ccccc56)c3F)COC(C)(C)C4)C2)C1` [Example 14-68, 1-(6-(3-fluoro-4-(3-hydroxy-1-naphthalenyl)-7,7-dimethyl-7,8-dihydro-5H-pyrano[4,3-b]pyridin-2-yl)-2,6-diazaspiro[3.4]octan-2-yl)-2-propen-1-one], the IC50 in experiment [1] (Homo sapiens, MIA PaCa-2, 72 h) was 91 nM; in experiment [2], 50 nM; in experiment [3] (Homo sapiens, A549, 72 h), > 5000 nM.
For the compound `C=CC(=O)N1CC2(CCN(c3cc4c(c(-c5c(C)ccc6[nH]ncc56)c3C#N)CCCC4)C2)C1` [Example 2-93, 1-(5-methyl-1H-indazol-4-yl)-3-(2-(2-propenoyl)-2,6-diazaspiro[3.4]octan-6-yl)-5,6,7,8-tetrahydro-2-naphthalenecarbonitrile], the IC50 came out at 70 nM in experiment [1] (Homo sapiens, MIA PaCa-2, 72 h); 19 nM in experiment [2] (setting [4]); 2040 nM in experiment [3] (Homo sapiens, A549, 72 h).

For orientation: IC50 means the concentration that gives 50% inhibition. Low readings indicate inhibition by little substance, high ones a need for much substance.

These data come from patent US20240059703A1 (AMGEN INC., priority 2021, published 2024).
